Experimental data: patent publication US20100256098A1, “COMPOUNDS FOR INHIBITING WIP1, PRODRUGS AND COMPOSITIONS THEREOF, AND RELATED METHODS” (The United States of America, as represented by the …, priority 2007, published 2010)
Where a chain is given by its changes, count along the chain named. Like-named read-outs stand apart in the source and are kept apart here. Each block holds one molecule with its values, some of them ahead of it.

Tests used:
[1] = tested on: Wip1 in MCF7 cells; assay: Western blot of phospho-p38 MAPK and p38 MAPK in MCF7 cells treated with compound; assay type: cell-based, human; conditions: DMSO negative and UV (25J/m2) positive controls
Procedure: The selectivity of three compounds in inhibiting Wip1 was tested on human breast cancer cell line MCF7 cells, the latter strongly expressing Wip1. These cells were treated with each compound, and cell lysates were collected after the indicated time point. 20 ug of total protein extracts were subjected to SDS-PAGE, and levels of phospho-p38 MAPK and p38 MAPK were examined by Western blot analysis using specific antibodies. Dimethyl sulphoxide (DMSO) and UV (25J/m2) treated cells were used as the negative and positive controls respectively.

[2] = target: T1, human Wip1 protein (rWip1, catalytic domain, residues 1-420) (Homo sapiens, UniProt O15297); assay: Wip1 phosphatase assay (malachite green/molybdate-based)
T1 sequence (O15297 1-420): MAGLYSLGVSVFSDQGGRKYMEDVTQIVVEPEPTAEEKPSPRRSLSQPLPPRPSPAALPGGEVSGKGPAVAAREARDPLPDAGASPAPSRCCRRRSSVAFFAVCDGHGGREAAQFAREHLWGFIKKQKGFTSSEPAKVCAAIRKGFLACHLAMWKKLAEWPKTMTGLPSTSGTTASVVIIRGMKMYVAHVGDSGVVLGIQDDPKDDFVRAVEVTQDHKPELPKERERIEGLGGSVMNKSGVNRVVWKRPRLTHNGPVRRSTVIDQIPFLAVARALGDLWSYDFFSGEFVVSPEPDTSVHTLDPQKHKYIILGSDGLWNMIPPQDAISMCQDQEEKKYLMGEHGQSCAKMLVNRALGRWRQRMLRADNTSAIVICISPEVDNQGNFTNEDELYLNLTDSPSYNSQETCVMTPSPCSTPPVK
Procedure: (§1) An N-terminal histidine-tagged, catalytic domain of the human Wip1 protein (amino acid residues 1-420), rWip1, and K238D mutant of Wip1 were expressed in Escherichia coli BL21 (DE3) and purified as previously reported in Yamaguchi et al., supra.
(§2) Phosphatase activity was measured by a malachite green/molybdate-based assay (see, e.g., Yamaguchi et al., Biochemistry, 44:5285-5294 (2005), Harder et al, Biochem J., 298: 395-401 (1994), and Donella-Deana et al., Methods Enzymol., 366: 3-17 (2003)). […] The inhibitors were pre-equilibrated at 30° C. for 6 min. The inhibition percentages were estimated by the following equation.
(§3) where A and A100 denote absorbance intensities at 650 nm with and without the inhibitor, respectively. A0 denotes absorbance of the sample without phosphatase. The IC50 values were estimated by a sigmoidal dose-response equation. The apparent inhibitory constant (Ki) values were estimated using the following equation (see, e.g., Cheng et al., Biochem. Pharmacol., 22: 3099-3108 (1973)):

[3] = target: T2, PP2Cα (Homo sapiens, UniProt P35813); assay: Phosphatase assay with PP2Cα; conditions: for Ki: read-out: Ki (μM) PP2Cα, Table 2, NI = no inhibition observed
T2 sequence (P35813 1-382): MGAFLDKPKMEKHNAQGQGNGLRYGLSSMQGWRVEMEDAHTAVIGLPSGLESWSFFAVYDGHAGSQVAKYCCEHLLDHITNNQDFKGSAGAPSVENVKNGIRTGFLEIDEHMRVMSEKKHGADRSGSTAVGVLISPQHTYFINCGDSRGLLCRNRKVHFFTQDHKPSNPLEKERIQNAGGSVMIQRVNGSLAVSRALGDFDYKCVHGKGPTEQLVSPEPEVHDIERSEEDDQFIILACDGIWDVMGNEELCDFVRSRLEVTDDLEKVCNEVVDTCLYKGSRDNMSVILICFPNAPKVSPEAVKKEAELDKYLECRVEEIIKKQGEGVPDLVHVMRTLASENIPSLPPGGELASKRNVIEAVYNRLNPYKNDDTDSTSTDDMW
Procedure: (§4) The inhibitors were pre-equilibrated at 30° C. for 6 min. The inhibition percentages were estimated by the following equation.
as §3
(§5) wherein [S] is the concentration of the substrate peptide and Km is the Michaelis constant.
(§6) The selectivity of the compounds was determined. Certain compounds were tested to determine their selectivity in inhibiting Wip1, PP2Cα, and a K238D mutant of Wip1 according to the methods described above.

[4] = tested on: human Wip1 protein (rWip1, catalytic domain, residues 1-420); assay: Wip1 phosphatase assay (malachite green/molybdate-based); conditions: versus K238D mutant and PP2Cα
Procedure: as §1, §2, §3

[5] = target: T3, Wip1(K238D) (Homo sapiens, UniProt O15297, K238D); assay: Phosphatase assay with the K238D mutant of Wip1; conditions: for Ki: read-out: Ki (μM) Wip1(K238D), Table 2, K238D mutant of Wip1, NI = no inhibition observed
T3 sequence (O15297 1-420 K238D): T1 sequence (O15297 1-420) with K238D
Procedure: as §4, §3, §5, §6

SMILES: CCCCC(CCCC)Cc1c(-c2ccc(OP(=O)(OCCSC(=O)C(C)(C)C)Oc3ccccc3)c(Cl)c2)c(C(=O)O)c(Cc2ccc(Cl)cc2)n1CCCOP(=O)(OCCSC(=O)C(C)(C)C)Oc1ccccc1 (stereo not drawn) [Compound 1A]
effectiveness in inhibiting Wip1 (levels of phospho-p38 MAPK) [1]: effective

SMILES: CCc1c(-c2ccc(OP(=O)(O)O)cc2)c(C(N)=O)c(C)n1CCOP(=O)(O)O [Compound 1]
Ki ([2]; pH 7.5): > 100 µM

SMILES: CCCc1c(-c2ccc(OP(=O)(O)O)cc2)c(C(N)=O)c(C)n1CCOP(=O)(O)O [Compound 2]
Ki ([2]; pH 7.5): > 100 µM

Ki [2]: 61 ± 15 µM
SMILES: CCCC(C)Cc1c(-c2ccc(OP(=O)(O)O)cc2)c(C(N)=O)c(C)n1CCOP(=O)(O)O (stereo not drawn) [Compound 3]

Ki [2]: 81 ± 5 µM
SMILES: Cc1c(C(N)=O)c(-c2ccc(OP(=O)(O)O)cc2)c(CC2CCCCC2)n1CCOP(=O)(O)O [Compound 4]

Ki [2]: 77 ± 12 µM
SMILES: CCCCCc1c(-c2ccc(OP(=O)(O)O)c(Cl)c2)c(C(N)=O)c(C)n1CCOP(=O)(O)O [Compound 5]

Ki [2]: 38 ± 8 µM
SMILES: Cc1c(C(N)=O)c(-c2ccc(OP(=O)(O)O)c(Cl)c2)c(CC(C)C)n1CCOP(=O)(O)O [Compound 6]

Ki [2]: 40 ± 1 µM
SMILES: CCCC(C)Cc1c(-c2ccc(OP(=O)(O)O)c(Cl)c2)c(C(N)=O)c(C)n1CCOP(=O)(O)O (stereo not drawn) [Compound 7]

Ki [2]: 22 ± 3 µM
SMILES: CCCC(C)Cc1c(-c2ccc(OP(=O)(O)O)cc2)c(C(N)=O)c(C)n1CCCOP(=O)(O)O (stereo not drawn) [Compound 9]

Ki [2]: 28 ± 1 µM
SMILES: Cc1c(C(N)=O)c(-c2ccc(OP(=O)(O)O)c(Cl)c2)c(CC(C)C)n1CCCOP(=O)(O)O [Compound 10]

SMILES: CCCC(C)Cc1c(-c2ccc(OP(=O)(O)O)c(Cl)c2)c(C(N)=O)c(C)n1CCCCOP(=O)(O)O (stereo not drawn) [Compound 11]
Ki ([2]; pH 7.5): > 100 µM

SMILES: CCCC(C)Cc1c(-c2ccc(OP(=O)(O)O)c(Cl)c2)c(C(=O)NCCC(N)=O)c(C)n1CCCOP(=O)(O)O (stereo not drawn) [Compound 12]
Ki ([2]; pH 7.5): > 100 µM

Ki [2]: 22 ± 2 µM
SMILES: CCCC(C)Cc1c(-c2ccc(OP(=O)(O)O)c(Cl)c2)c(C(=O)NC(CC(C)C)C(N)=O)c(C)n1CCCOP(=O)(O)O (stereo not drawn) [Compound 13]

SMILES: CCCCC(C)c1c(C(N)=O)c(-c2ccc(OP(=O)(O)O)c(Cl)c2)c(C)n1CCCOP(=O)(O)O (stereo not drawn) [Compound 14]
Ki ([2]; pH 7.5): > 100 µM

Ki [2]: 48 ± 5 µM
SMILES: CCCC(C)Cc1c(-c2ccc(OP(=O)(O)O)cc2)c(C(N)=O)c(CC(C)C)n1CCCOP(=O)(O)O (stereo not drawn) [Compound 15]

Ki [2]: 15 ± 1 µM
SMILES: CCCC(C)Cc1c(-c2ccc(OP(=O)(O)O)c(Cl)c2)c(C(N)=O)c(CCc2ccccc2)n1CCCOP(=O)(O)O (stereo not drawn) [Compound 18]

Ki [2]: 22 ± 1 µM
SMILES: CC(C)Cc1c(-c2ccc(OP(=O)(O)O)c(Cl)c2)c(C(N)=O)c(Cc2ccc(Cl)cc2)n1CCCOP(=O)(O)O [Compound 21]

Ki [2]: 16 ± 2 µM
SMILES: CCCC(C)Cc1c(-c2ccc(OP(=O)(O)O)c(Cl)c2)c(C(N)=O)c(Cc2ccc(F)cc2)n1CCCOP(=O)(O)O (stereo not drawn) [Compound 23]

SMILES: CCCC(C)Cc1c(-c2ccc(OP(=O)(O)O)c(Cl)c2)c(C(N)=O)c(CCc2ccc(Cl)cc2)n1CCCOP(=O)(O)O (stereo not drawn) [Compound 24]
inhibition of PP2Cα [3]: no inhibition | Ki [3]: > 100 µM | Ki [2]: 5.7 ± 0.4 µM | selectivity for Wip1 [4]: highly selective | inhibition of the K238D mutant [5]: no inhibition | Ki [5]: > 100 µM

SMILES: CCC[C@H](C)Cc1c(-c2ccc(OP(=O)(O)O)c(Cl)c2)c(C(N)=O)c(CCc2ccc(Cl)cc2)n1CCCOP(=O)(O)O [Compound 25]
inhibition of PP2Cα [3]: no inhibition | Ki [3]: > 100 µM | Ki [2]: 4.7 ± 0.7 µM | selectivity for Wip1 [4]: highly selective | inhibition of the K238D mutant [5]: no inhibition | Ki [5]: > 100 µM

SMILES: CCC[C@@H](C)Cc1c(-c2ccc(OP(=O)(O)O)c(Cl)c2)c(C(N)=O)c(CCc2ccc(Cl)cc2)n1CCCOP(=O)(O)O [Compound 26]
inhibition of PP2Cα [3]: no inhibition | Ki [3]: > 100 µM | Ki [2]: 10 ± 1 µM | selectivity for Wip1 [4]: highly selective | inhibition of the K238D mutant [5]: no inhibition | Ki [5]: > 100 µM
